Experiments:
neuroblasts (SH-SY5Y) = test: ROS generation after H2O2 oxidative stress (DCF fluorescence); format: cell-based; conditions: compared to the control group
[1] = system: Immortalized human neural progenitor cell line (ReNcell VM); test: Differentiation of neural progenitor cells into motor neurons (HB9 immunostaining / CellTag); format: cell-based; conditions: compared to the control group
Protocol: Immortalized human neural progenitor cell line (ReNcell VM) as a neural progenitor cell that may differentiate into neurons and glial cells was treated with nebivolol alone, donepezil alone, and nebivolol+donepezil combination. Thereafter, immunostaining was performed using an antibody capable of selectively binding to motor neurons (anti-HB9 antibody) and a CellTag probe that stains whole cells. Thereafter, the HB9 positive signal and the value of CellTag were analyzed to determine the number of motor neurons among the total cells, thereby measuring the degree of differentiation of neural precursor cells into motor neurons.

microglia (BV2 cells) = test: NO generation in LPS-treated microglia (anti-inflammatory effect); format: cell-based; conditions: BV2 cells treated with LPS and drug at the same time; compared to the LPS control group
Protocol: Microglia (BV2 cells) were treated with LPS to cause an inflammatory response and, at the same time, treated with nebivolol alone, donepezil alone, or nebivolol+donepezil combination to measure the concentration of generated NO.

SOD1G93A transgenic mice = test: Rotarod latency test in ALS animal model; format: in vivo; conditions: oral once daily from 70 days of age for 70 days, edaravone 15 mg/kg, NDC-011 nebivolol 5 mg/kg+donepezil 3 mg/kg, compared to the normal control group
Protocol: SOD1G93A transgenic mice as ALS animal models were used to verify the in vivo efficacy of the nebivolol and donepezil complex. Edaravone (15 mg/kg) as a commercially available ALS treatment, or a nebivolol and donepezil complex (NDC-011, nebivolol 5 mg/kg+donepezil 3 mg/kg) according to the present invention was administered to mice from 70 days of age once daily. Each dose was orally administered for 70 days. The rotarod latency test was performed immediately before the start of drug administration to evaluate the motor ability of each animal, and, thereafter, the rotarod latency test was performed during the drug administration period at 7-day intervals to evaluate the motor ability of the ALS animals.

[2] = ReNcell VM, low concentration (0.01 μM) of nebivolol or donepezil alone

Row | SMILES | amount of generated reactive oxygen species (ROS) (neuroblasts (SH-SY5Y)) | HB-9 expression (motor neuron marker) ([1]; ReNcell VM under differentiation conditions) | HB-9 expression (motor neuron marker) [1, 2] | concentration of generated NO (microglia (BV2 cells)) | age from which exercise capacity decreased (rotarod latency) (SOD1G93A transgenic mice) [days]
1 | OC(CNCC(O)C1CCc2cc(F)ccc2O1)C1CCc2cc(F)ccc2O1 (centres unmarked) [nebivolol, Nebivolol] | no significant decrease | significant increase in HB-9 expression | not observed | significant reduction in NO | 
2 | CC1=NN(c2ccccc2)C(=O)C1 [edaravone, Edaravone] |  |  |  |  | 84
3 | COc1cc2c(cc1OC)C(=O)C(CC1CCN(Cc3ccccc3)CC1)C2 (centres unmarked) [donepezil, Donepezil] | no significant decrease |  | not observed | significant reduction in NO | 

Reference: US20240148711A1, “COMPOSITION COMPRISING BETA BLOCKER AND CHOLINESTERASE INHIBITOR FOR TREATMENT OF NEURODEGENERATIVE DISEASE” (DR. NOAH BIOTECH INC., priority 2022, published 2024)
